In one experiment the target is Adenosine receptor A2a (Homo sapiens, UniProt P29274).
Experiment [1] concerns the target T1, Alpha-2C adrenergic receptor (Homo sapiens, UniProt P18825).
T1 sequence (P18825 whole entry): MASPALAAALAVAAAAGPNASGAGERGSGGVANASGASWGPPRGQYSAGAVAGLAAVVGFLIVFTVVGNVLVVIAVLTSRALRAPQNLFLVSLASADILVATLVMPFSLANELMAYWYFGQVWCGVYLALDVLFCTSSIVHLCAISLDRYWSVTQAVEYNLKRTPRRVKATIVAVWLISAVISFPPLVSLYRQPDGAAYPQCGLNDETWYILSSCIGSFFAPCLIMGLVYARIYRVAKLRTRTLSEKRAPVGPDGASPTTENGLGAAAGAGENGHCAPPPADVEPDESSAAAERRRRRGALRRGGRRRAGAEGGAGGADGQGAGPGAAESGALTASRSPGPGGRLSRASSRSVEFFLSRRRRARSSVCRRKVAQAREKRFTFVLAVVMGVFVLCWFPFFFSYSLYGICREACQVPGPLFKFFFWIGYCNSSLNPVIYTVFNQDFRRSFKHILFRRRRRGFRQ
The experiment is classed as functional.

The target in the next experiment is Cannabinoid receptor 1 (Homo sapiens, UniProt P21554). The experiment is classed as functional, cell-based.
Chain of Cannabinoid receptor 1 (P21554 whole entry): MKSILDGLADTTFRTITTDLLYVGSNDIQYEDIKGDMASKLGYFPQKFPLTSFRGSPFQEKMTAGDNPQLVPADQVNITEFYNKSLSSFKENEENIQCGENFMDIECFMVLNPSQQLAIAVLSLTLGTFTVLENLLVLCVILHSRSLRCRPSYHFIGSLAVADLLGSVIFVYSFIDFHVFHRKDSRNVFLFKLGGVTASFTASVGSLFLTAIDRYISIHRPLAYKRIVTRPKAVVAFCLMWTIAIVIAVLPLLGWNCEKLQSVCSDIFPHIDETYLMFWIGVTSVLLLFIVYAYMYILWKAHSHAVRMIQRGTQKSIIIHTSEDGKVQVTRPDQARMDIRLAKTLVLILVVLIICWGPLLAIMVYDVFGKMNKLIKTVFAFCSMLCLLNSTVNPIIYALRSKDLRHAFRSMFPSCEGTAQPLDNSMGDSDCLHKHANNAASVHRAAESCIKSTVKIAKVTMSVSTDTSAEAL
In another experiment the target is T2, Endothelin-1 receptor (Homo sapiens, UniProt P25101).
T2 sequence (P25101 whole entry): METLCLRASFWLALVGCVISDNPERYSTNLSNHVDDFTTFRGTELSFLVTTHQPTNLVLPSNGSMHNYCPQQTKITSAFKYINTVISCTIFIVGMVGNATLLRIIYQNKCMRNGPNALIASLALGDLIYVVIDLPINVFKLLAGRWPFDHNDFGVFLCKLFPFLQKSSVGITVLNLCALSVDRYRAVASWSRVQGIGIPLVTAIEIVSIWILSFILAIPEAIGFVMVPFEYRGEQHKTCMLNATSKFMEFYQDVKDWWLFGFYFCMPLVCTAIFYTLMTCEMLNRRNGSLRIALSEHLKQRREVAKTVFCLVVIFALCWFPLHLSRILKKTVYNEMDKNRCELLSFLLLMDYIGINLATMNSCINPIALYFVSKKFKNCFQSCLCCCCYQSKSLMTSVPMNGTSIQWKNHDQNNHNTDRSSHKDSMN

The target in experiment [2] is Growth hormone secretagogue receptor type 1 (Homo sapiens, UniProt Q92847).
Chain of Growth hormone secretagogue receptor type 1 (Q92847 whole entry): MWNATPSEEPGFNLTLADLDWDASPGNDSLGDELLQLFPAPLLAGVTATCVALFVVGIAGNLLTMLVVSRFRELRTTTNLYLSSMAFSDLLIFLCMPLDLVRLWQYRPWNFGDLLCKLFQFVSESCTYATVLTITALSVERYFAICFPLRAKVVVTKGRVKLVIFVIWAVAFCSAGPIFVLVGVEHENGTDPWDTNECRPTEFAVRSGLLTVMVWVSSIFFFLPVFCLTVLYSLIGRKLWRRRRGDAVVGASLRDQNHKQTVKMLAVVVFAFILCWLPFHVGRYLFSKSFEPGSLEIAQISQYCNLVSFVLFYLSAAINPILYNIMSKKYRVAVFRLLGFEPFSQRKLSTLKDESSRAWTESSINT
Experiment [3] has as its target 5-hydroxytryptamine receptor 2B (Homo sapiens, UniProt P41595). In kind it is functional, cell-based.
The target in experiment [4] is Voltage-gated inwardly rectifying potassium channel KCNH2 (Homo sapiens, UniProt Q12809). The experiment is classed as functional. The conditions noted are these: read-out: AC50.
Chain of Voltage-gated inwardly rectifying potassium channel KCNH2 (Q12809 whole entry): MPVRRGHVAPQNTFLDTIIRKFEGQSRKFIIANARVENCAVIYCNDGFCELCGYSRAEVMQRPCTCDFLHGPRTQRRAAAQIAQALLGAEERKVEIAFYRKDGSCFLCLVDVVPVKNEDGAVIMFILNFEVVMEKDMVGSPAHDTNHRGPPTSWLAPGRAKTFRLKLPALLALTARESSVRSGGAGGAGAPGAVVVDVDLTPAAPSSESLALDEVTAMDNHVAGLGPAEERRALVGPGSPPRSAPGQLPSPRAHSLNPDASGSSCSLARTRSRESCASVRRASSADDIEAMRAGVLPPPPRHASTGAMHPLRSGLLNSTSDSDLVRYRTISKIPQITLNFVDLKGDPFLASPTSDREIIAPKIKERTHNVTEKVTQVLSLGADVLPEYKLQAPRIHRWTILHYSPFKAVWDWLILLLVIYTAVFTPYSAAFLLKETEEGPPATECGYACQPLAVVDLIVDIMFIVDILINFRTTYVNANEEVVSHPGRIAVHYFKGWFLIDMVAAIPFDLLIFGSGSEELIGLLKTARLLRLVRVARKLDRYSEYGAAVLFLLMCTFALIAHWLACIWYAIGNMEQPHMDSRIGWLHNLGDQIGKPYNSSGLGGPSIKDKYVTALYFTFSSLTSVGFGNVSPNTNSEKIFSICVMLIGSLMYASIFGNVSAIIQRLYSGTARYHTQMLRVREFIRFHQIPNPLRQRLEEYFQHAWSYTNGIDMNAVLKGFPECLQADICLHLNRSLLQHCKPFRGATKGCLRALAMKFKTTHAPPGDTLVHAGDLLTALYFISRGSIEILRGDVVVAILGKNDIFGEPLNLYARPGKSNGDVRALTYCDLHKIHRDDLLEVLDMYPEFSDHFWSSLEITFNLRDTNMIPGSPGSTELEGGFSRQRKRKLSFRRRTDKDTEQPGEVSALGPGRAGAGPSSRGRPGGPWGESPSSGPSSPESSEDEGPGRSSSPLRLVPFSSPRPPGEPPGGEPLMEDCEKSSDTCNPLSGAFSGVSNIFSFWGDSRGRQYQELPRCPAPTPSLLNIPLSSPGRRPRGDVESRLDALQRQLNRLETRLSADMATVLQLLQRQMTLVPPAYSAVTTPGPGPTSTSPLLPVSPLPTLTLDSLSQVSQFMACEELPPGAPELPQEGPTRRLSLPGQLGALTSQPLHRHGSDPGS
A further experiment deals with T3, Thromboxane A2 receptor (Homo sapiens, UniProt P21731).
T3 sequence (P21731 whole entry): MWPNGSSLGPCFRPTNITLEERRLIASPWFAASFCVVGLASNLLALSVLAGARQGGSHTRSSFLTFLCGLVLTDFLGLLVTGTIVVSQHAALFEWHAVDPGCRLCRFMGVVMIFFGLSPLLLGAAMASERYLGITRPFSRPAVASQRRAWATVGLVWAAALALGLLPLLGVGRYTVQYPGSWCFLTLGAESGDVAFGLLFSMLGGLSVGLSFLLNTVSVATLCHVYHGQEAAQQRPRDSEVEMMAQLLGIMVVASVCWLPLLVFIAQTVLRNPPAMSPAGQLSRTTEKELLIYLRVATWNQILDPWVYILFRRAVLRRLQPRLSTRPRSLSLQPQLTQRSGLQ

The target of experiment [5] is Sodium-dependent noradrenaline transporter (Homo sapiens, UniProt P23975).
Chain of Sodium-dependent noradrenaline transporter (P23975 whole entry): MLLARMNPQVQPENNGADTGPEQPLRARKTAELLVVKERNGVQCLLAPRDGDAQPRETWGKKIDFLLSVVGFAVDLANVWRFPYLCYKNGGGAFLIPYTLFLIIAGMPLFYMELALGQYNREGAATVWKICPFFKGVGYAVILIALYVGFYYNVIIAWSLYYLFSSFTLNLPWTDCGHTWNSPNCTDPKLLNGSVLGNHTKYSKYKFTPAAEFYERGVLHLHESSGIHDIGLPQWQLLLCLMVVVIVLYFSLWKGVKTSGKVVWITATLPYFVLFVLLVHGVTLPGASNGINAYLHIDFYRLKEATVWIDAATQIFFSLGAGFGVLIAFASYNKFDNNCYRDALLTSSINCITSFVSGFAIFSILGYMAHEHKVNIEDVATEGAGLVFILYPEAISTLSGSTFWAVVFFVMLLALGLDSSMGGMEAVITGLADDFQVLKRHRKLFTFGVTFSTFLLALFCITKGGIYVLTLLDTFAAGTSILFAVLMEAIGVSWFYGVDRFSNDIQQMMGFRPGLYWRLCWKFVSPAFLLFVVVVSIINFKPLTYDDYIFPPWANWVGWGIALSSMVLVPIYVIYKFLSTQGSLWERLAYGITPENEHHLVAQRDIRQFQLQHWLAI
Another experiment concerns the target D(3) dopamine receptor (Homo sapiens, UniProt P35462).
Experiment [6] concerns the target T4, 5-hydroxytryptamine receptor 1A (Homo sapiens, UniProt P08908).
T4 sequence (P08908 whole entry): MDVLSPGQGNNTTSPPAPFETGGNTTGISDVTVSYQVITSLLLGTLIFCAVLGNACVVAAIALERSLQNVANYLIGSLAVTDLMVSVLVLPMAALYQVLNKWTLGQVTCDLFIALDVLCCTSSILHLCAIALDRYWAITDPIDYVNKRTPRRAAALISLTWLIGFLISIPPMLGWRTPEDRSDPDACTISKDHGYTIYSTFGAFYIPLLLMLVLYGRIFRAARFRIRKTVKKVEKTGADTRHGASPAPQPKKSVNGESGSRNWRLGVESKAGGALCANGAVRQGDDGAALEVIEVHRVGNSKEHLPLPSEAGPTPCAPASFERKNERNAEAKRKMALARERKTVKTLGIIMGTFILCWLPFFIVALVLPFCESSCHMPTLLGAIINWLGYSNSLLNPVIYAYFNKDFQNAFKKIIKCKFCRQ
In kind it is functional, cell-based.

Experiment [7] concerns the target T5, Muscarinic acetylcholine receptor M1 (Homo sapiens, UniProt P11229).
T5 sequence (P11229 whole entry): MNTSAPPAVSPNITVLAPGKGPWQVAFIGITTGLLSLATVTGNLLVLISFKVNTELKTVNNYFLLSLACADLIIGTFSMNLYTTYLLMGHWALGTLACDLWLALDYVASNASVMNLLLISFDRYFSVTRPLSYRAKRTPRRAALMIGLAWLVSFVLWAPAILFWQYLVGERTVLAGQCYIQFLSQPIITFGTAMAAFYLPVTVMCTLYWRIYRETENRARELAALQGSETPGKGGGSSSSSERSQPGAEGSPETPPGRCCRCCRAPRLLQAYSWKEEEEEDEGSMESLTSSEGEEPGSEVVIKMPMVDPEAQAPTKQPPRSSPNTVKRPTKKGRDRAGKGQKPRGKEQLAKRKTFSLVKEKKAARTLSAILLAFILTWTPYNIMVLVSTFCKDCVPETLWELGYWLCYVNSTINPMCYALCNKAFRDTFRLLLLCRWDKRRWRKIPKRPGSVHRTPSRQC
In kind it is functional.

This passage reports AC50 results from ChEMBL document CHEMBL5291721, “A preclinical secondary pharmacology resource illuminates target-adverse drug reaction associations of marketed drugs” (Nat Commun, 2023).

By AC50 is commonly meant the midpoint of the concentration-response curve, whichever way the signal moves.
Further: assay procedure not described here.

Chain of 5-hydroxytryptamine receptor 2B (P41595 whole entry): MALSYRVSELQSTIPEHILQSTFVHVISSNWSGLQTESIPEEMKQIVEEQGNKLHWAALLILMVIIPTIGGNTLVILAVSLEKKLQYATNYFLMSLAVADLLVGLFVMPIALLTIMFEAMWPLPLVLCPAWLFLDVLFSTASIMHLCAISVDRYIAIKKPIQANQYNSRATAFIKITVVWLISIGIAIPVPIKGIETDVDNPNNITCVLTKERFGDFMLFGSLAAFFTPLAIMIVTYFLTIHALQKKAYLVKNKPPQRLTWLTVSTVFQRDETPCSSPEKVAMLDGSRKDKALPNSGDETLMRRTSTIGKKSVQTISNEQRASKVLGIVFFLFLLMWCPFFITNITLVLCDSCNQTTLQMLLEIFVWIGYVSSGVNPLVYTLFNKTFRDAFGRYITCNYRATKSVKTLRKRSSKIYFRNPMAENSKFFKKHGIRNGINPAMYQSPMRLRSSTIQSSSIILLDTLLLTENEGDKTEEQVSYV
Chain of D(3) dopamine receptor (P35462 whole entry): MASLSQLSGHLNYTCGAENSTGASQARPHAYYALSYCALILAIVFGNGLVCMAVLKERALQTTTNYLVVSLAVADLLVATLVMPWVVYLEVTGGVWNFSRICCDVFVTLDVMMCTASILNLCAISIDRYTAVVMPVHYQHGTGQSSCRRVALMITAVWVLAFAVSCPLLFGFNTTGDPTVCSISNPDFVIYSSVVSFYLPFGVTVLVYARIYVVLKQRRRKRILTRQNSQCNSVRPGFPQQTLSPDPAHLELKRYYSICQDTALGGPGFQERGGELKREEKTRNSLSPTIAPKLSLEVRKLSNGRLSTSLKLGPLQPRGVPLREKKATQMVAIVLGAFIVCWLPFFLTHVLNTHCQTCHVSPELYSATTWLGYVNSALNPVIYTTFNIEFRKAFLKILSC
Chain of Adenosine receptor A2a (P29274 whole entry): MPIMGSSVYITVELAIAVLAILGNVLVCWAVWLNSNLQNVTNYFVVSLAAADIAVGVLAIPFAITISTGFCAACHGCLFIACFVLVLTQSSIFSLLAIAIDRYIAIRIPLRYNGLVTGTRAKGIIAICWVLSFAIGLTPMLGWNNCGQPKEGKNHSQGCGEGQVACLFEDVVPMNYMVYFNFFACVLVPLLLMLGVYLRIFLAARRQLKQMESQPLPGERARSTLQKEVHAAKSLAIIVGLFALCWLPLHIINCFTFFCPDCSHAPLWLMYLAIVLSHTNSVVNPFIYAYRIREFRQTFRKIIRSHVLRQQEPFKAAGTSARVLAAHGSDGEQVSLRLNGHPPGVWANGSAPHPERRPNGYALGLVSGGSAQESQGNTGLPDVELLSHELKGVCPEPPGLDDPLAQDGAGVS

Regarding `CNS(=O)(=O)Cc1ccc2[nH]cc(CCN(C)C)c2c1`, the AC50 was > 30 µM on Adenosine receptor A2a; > 30 µM in [1]; > 30 µM on Cannabinoid receptor 1; > 30 µM on Endothelin-1 receptor; > 30 µM in [2]; 13 µM in experiment [3]. Besides, the AC50 is > 30 µM in experiment [4], > 30 µM at Thromboxane A2 receptor, > 10 µM in [5] and > 30 µM on D(3) dopamine receptor.
On to `Nc1nc(N)nc(-c2cc(Cl)ccc2Cl)n1` [IRSOGLADINE], for which the AC50 (on Adenosine receptor A2a; in [1]; at Cannabinoid receptor 1; on Endothelin-1 receptor; in experiment [2]; in experiment [6]) was > 30 µM each time. Moreover, the AC50 (in experiment [3]; in experiment [4]; at Thromboxane A2 receptor; in experiment [5]) was > 30 µM in each case.
In the case of `CC(=O)O[C@H]1C[C@@H]2CC[C@@H]3[C@H](CC[C@@]4(C)[C@H]3C[C@H]([N+]3(C)CCCCC3)[C@@H]4OC(C)=O)[C@@]2(C)C[C@@H]1N1CCCCC1` [VECURONIUM], the half-maximal activity concentration (AC50) (at Adenosine receptor A2a; in experiment [1]; on Cannabinoid receptor 1; at Endothelin-1 receptor; in experiment [2]; in experiment [6]) was > 30 µM in each case. Moreover, the AC50 in experiment [3] was > 30 µM; in experiment [4], 10.4 µM; on Thromboxane A2 receptor it was > 30 µM; in [5], > 30 µM; on D(3) dopamine receptor, > 30 µM.
`CCC1(CC)C(=O)NCC(C)C1=O` (centres undefined) [METHYPRYLON]: the half-maximal activity concentration (AC50) (on Adenosine receptor A2a; in experiment [1]; in [7]; at Cannabinoid receptor 1; on Endothelin-1 receptor; in [2]) was > 30 µM throughout. The AC50 (in experiment [6]; in [3]; in [4]; in experiment [5]; at D(3) dopamine receptor) was > 30 µM in each case.
Regarding `CNC(C)CCC=C(C)C` (centres undefined) [ISOMETHEPTENE], the AC50 (at Adenosine receptor A2a; at Endothelin-1 receptor; in [2]; in experiment [4]; at Thromboxane A2 receptor; in experiment [5]) was > 30 µM in each case.
As for `CCOC(=O)OC(C)OC1=C(C(=O)Nc2ccccn2)N(C)S(=O)(=O)c2ccccc21` (centres undefined) [AMPIROXICAM], the AC50 (on Adenosine receptor A2a; in experiment [1]; on Cannabinoid receptor 1; at Endothelin-1 receptor; in experiment [2]; in experiment [6]) was > 30 µM each time. In addition, the AC50 (in experiment [3]; in experiment [4]; at Thromboxane A2 receptor; in experiment [5]; on D(3) dopamine receptor) was > 30 µM throughout.
On to `CO/N=C(\C(=O)N[C@@H]1C(=O)N2C(C(=O)O)=C(CSc3nnnn3C)CS[C@H]12)c1csc(N)n1` [CEFMENOXIME], for which the AC50 (at Adenosine receptor A2a; in experiment [1]; in [7]; on Cannabinoid receptor 1; at Endothelin-1 receptor; in [2]) was > 30 µM each time. Also, the AC50 in experiment [6], in experiment [3], in experiment [4] and in experiment [5] was > 30 µM throughout.
With `CCN1CCN(C(=O)N[C@@H](C(=O)N[C@@H]2C(=O)N3C(C(=O)O)=C(CSc4nnnn4C)CS[C@H]23)c2ccc(O)cc2)C(=O)C1=O` [CEFOPERAZONE], the concentration at half-maximal activity (AC50) (at Adenosine receptor A2a; in experiment [1]; in experiment [7]; at Cannabinoid receptor 1; at Endothelin-1 receptor; in experiment [2]) was > 30 µM in each case. For the same compound, the concentration at half-maximal activity (AC50) (in experiment [6]; in [3]; in [4]; in experiment [5]; at D(3) dopamine receptor) was > 30 µM in each case.
As for `CC(C)OC(=O)CCC/C=C\C[C@@H]1[C@@H](CC[C@@H](O)CCc2ccccc2)[C@H](O)C[C@@H]1O` [LATANOPROST], the AC50 (at Adenosine receptor A2a; in [1]; in experiment [7]; on Cannabinoid receptor 1; at Endothelin-1 receptor; in experiment [2]) was > 30 µM throughout. The half-maximal activity concentration (AC50) (in experiment [6]; in [3]; in [4]; in [5]; at D(3) dopamine receptor) was > 30 µM in each case.
Regarding `Cn1c(=O)c2c(ncn2CC2OCCO2)n(C)c1=O` [DOXOFYLLINE], the AC50 (at Adenosine receptor A2a; in experiment [1]; at Cannabinoid receptor 1; on Endothelin-1 receptor; in [2]; in experiment [6]) was > 30 µM throughout. The concentration at half-maximal activity (AC50) (in [3]; in [4]; on Thromboxane A2 receptor; in experiment [5]; on D(3) dopamine receptor) was > 30 µM each time.
In the case of `CCN(CC)C(=O)N[C@H]1C[C@@H]2c3cccc4[nH]cc(c34)C[C@H]2N(C)C1` [TERGURIDE], the AC50 is > 30 µM at Adenosine receptor A2a; 0.0031 µM in [1]; > 30 µM in [7]; > 30 µM at Cannabinoid receptor 1; > 30 µM on Endothelin-1 receptor; > 30 µM in experiment [2]. In addition, the half-maximal activity concentration (AC50) is 0.18 µM in experiment [6]; > 30 µM in [3]; 18 µM in [4]; > 30 µM in experiment [5]; 0.006 µM on D(3) dopamine receptor.
For `C/C(O)=C(\C#N)C(=O)Nc1ccc(C(F)(F)F)cc1` [TERIFLUNOMIDE], the AC50 (on Adenosine receptor A2a; in experiment [1]; in [7]; on Cannabinoid receptor 1; on Endothelin-1 receptor; in experiment [2]) was > 30 µM throughout. Also, the AC50 (in experiment [6]; in experiment [3]; in experiment [4]; in [5]; on D(3) dopamine receptor) was > 30 µM each time.
